Converted amounts (≈) assume the structure as drawn.
Assays:
Type in all cases: functional
Haemophilus influenzae [1] = assay: Antibacterial activity against beta lactamase-negative Haemophilus influenzae by CLSI M7-A7 broth microdilution method
Enterobacter cloacae [2] = assay: Antibacterial activity against ceftazidime-susceptible Enterobacter cloacae assessed as susceptible isolates by CLSI M7-A7 broth microdilution method
Streptococcus viridans = assay: Antibacterial activity against penicillin-nonsusceptible Streptococcus viridans by CLSI M7-A7 broth microdilution method
Proteus mirabilis [3] = assay: Antibacterial activity against ceftazidime-susceptible Proteus mirabilis by CLSI M7-A7 broth microdilution method
Citrobacter freundii [4] = assay: Antibacterial activity against ceftazidime-nonsusceptible Citrobacter freundii by CLSI M7-A7 broth microdilution method
Klebsiella pneumoniae [5] = assay: Antibacterial activity against ceftazidime-susceptible Klebsiella pneumoniae assessed as susceptible isolates by CLSI M7-A7 broth microdilution method
Klebsiella pneumoniae [6] = assay: Antibacterial activity against ceftazidime-nonsusceptible Klebsiella pneumoniae by CLSI M7-A7 broth microdilution method
Enterococcus faecalis = assay: Antibacterial activity against vancomycin-resistant Enterococcus faecalis by CLSI M7-A7 broth microdilution method
Enterobacteriaceae [7] = assay: Antibacterial activity against ceftazidime-susceptible Enterobacteriaceae by CLSI M7-A7 broth microdilution method
Haemophilus influenzae [8] = assay: Antibacterial activity against beta lactamase-positive Haemophilus influenzae assessed as susceptible isolates by CLSI M7-A7 broth microdilution method
Acinetobacter [9] = assay: Antibacterial activity against imipenem-susceptible Acinetobacter by CLSI M7-A7 broth microdilution method
Escherichia coli [10] = assay: Antibacterial activity against ceftazidime-nonsusceptible Escherichia coli assessed as susceptible isolates by CLSI M7-A7 broth microdilution method
Enterobacteriaceae [11] = assay: Antibacterial activity against ceftazidime-nonsusceptible Enterobacteriaceae assessed as susceptible isolates by CLSI M7-A7 broth microdilution method
Staphylococcus aureus [12] = assay: Antibacterial activity against coagulase-negative and oxacillin-resistant Staphylococcus aureus assessed as resistant isolates by CLSI M7-A7 broth microdilution method
Staphylococcus aureus [13] = assay: Antibacterial activity against methicillin-resistant Staphylococcus aureus by CLSI M7-A7 broth microdilution method
Enterobacteriaceae [14] = assay: Antibacterial activity against ceftazidime-susceptible Enterobacteriaceae assessed as susceptible isolates by CLSI M7-A7 broth microdilution method
Streptococcus pneumoniae [15] = assay: Antibacterial activity against penicillin-resistant Streptococcus pneumoniae by CLSI M7-A7 broth microdilution method
Citrobacter freundii [16] = assay: Antibacterial activity against ceftazidime-nonsusceptible Citrobacter freundii assessed as resistant isolates by CLSI M7-A7 broth microdilution method
Klebsiella pneumoniae [17] = assay: Antibacterial activity against ceftazidime-nonsusceptible Klebsiella pneumoniae assessed as susceptible isolates by CLSI M7-A7 broth microdilution method
Staphylococcus aureus [18] = assay: Antibacterial activity against methicillin-susceptible Staphylococcus aureus assessed as susceptible isolates by CLSI M7-A7 broth microdilution method
Enterobacteriaceae [19] = assay: Antibacterial activity against ceftazidime-susceptible Enterobacteriaceae assessed as resistant isolates by CLSI M7-A7 broth microdilution method
Citrobacter freundii [20] = assay: Antibacterial activity against ceftazidime-nonsusceptible Citrobacter freundii assessed as susceptible isolates by CLSI M7-A7 broth microdilution method
Enterobacteriaceae [21] = assay: Antibacterial activity against ceftazidime-nonsusceptible Enterobacteriaceae assessed as resistant isolates by CLSI M7-A7 broth microdilution method
Streptococcus pneumoniae [22] = assay: Antibacterial activity against penicillin-susceptible Streptococcus pneumoniae assessed as resistant isolates by CLSI M7-A7 broth microdilution method
Enterobacteriaceae [23] = assay: Antibacterial activity against ceftazidime-nonsusceptible Enterobacteriaceae by CLSI M7-A7 broth microdilution method
Haemophilus influenzae [24] = assay: Antibacterial activity against beta lactamase-positive Haemophilus influenzae by CLSI M7-A7 broth microdilution method
Staphylococcus aureus [25] = assay: Antibacterial activity against coagulase-negative and oxacillin-susceptible Staphylococcus aureus by CLSI M7-A7 broth microdilution method
Acinetobacter [26] = assay: Antibacterial activity against multidrug-resistant Acinetobacter assessed as resistant isolates by CLSI M7-A7 broth microdilution method
Enterobacter cloacae [27] = assay: Antibacterial activity against ceftazidime-susceptible Enterobacter cloacae assessed as resistant isolates by CLSI M7-A7 broth microdilution method
Streptococcus pyogenes = assay: Antibacterial activity against erythromycin-nonsusceptible Streptococcus pyogenes by CLSI M7-A7 broth microdilution method
Citrobacter freundii [28] = assay: Antibacterial activity against ceftazidime-susceptible Citrobacter freundii by CLSI M7-A7 broth microdilution method
Enterobacter cloacae [29] = assay: Antibacterial activity against ceftazidime-nonsusceptible Enterobacter cloacae assessed as susceptible isolates by CLSI M7-A7 broth microdilution method
Escherichia coli [30] = assay: Antibacterial activity against ceftazidime-nonsusceptible Escherichia coli assessed as resistant isolates by CLSI M7-A7 broth microdilution method
Streptococcus pneumoniae [31] = assay: Antibacterial activity against penicillin-resistant Streptococcus pneumoniae assessed as resistant isolates by CLSI M7-A7 broth microdilution method
Providencia sp. = assay: Antibacterial activity against ceftazidime-susceptible Providencia sp. by CLSI M7-A7 broth microdilution method
Acinetobacter [32] = assay: Antibacterial activity against multidrug-resistant Acinetobacter assessed as susceptible isolates by CLSI M7-A7 broth microdilution method
Morganella morganii = assay: Antibacterial activity against ceftazidime-susceptible Morganella morganii by CLSI M7-A7 broth microdilution method
Proteus mirabilis [33] = assay: Antibacterial activity against ceftazidime-susceptible Proteus mirabilis assessed as resistant isolates by CLSI M7-A7 broth microdilution method

C[C@@H](O)[C@H]1C(=O)N2C(C(=O)O)=C(SCCNC=N)C[C@H]12 [IMIPENEM ANHYDROUS]
MIC50 (Haemophilus influenzae [1]): 0.25 µg/mL (≈ 0.835 µM) | MIC90 (Haemophilus influenzae [1]): 0.5 µg/mL (≈ 1.67 µM) | Activity (Enterobacter cloacae [2]): 100% | MIC50 (Streptococcus viridans): 0.06 µg/mL (≈ 0.2 µM) | MIC90 (Streptococcus viridans): 1 µg/mL (≈ 3.34 µM) | MIC50 (Proteus mirabilis [3]): 2 µg/mL (≈ 6.68 µM) | MIC90 (Proteus mirabilis [3]): 4 µg/mL (≈ 13.4 µM) | MIC50 (Citrobacter freundii [4]): 0.5 µg/mL (≈ 1.67 µM) | MIC90 (Citrobacter freundii [4]): 1 µg/mL (≈ 3.34 µM) | Activity (Klebsiella pneumoniae [5]): 100% | MIC50 (Klebsiella pneumoniae [6]): 0.12 µg/mL (≈ 0.401 µM) | MIC90 (Klebsiella pneumoniae [6]): 16 µg/mL (≈ 53.4 µM) | MIC50 (Enterococcus faecalis): 1 µg/mL (≈ 3.34 µM) | MIC90 (Enterococcus faecalis): 2 µg/mL (≈ 6.68 µM) | MIC50 (Enterobacteriaceae [7]): 0.25 µg/mL (≈ 0.835 µM) | MIC90 (Enterobacteriaceae [7]): 1 µg/mL (≈ 3.34 µM) | Activity (Haemophilus influenzae [8]): 100% | MIC50 (Acinetobacter [9]): 0.25 µg/mL (≈ 0.835 µM) | MIC90 (Acinetobacter [9]): 0.5 µg/mL (≈ 1.67 µM) | Activity (Escherichia coli [10]): 96.8% | Activity (Enterobacteriaceae [11]): 92.3% | Activity (Staphylococcus aureus [12]): 16.4% | MIC50 (Staphylococcus aureus [13]): 0.25 µg/mL (≈ 0.835 µM) | MIC90 (Staphylococcus aureus [13]): > 16 µg/mL | Activity (Enterobacteriaceae [14]): 100% | MIC50 (Streptococcus pneumoniae [15]): 0.25 µg/mL (≈ 0.835 µM) | MIC90 (Streptococcus pneumoniae [15]): 1 µg/mL (≈ 3.34 µM) | Activity (Citrobacter freundii [16]): 0% | Activity (Klebsiella pneumoniae [17]): 80.3% | Activity (Staphylococcus aureus [18]): 99.7% | Activity (Enterobacteriaceae [19]): 0% | Activity (Citrobacter freundii [20]): 100% | Activity (Enterobacteriaceae [21]): 4.5% | Activity (Streptococcus pneumoniae [22]): 0.5% | MIC50 (Enterobacteriaceae [23]): 0.25 µg/mL (≈ 0.835 µM) | MIC90 (Enterobacteriaceae [23]): 4 µg/mL (≈ 13.4 µM) | MIC50 (Haemophilus influenzae [24]): 0.12 µg/mL (≈ 0.401 µM) | MIC90 (Haemophilus influenzae [24]): 0.5 µg/mL (≈ 1.67 µM) | MIC (Staphylococcus aureus [25]): ≤ 0.12 µg/mL | MIC50 (Staphylococcus aureus [25]): ≤ 0.12 µg/mL | MIC90 (Staphylococcus aureus [25]): ≤ 0.12 µg/mL | Activity (Acinetobacter [26]): 31.3% | Activity (Enterobacter cloacae [27]): 0% | MIC (Streptococcus pyogenes): ≤ 0.015 µg/mL | MIC50 (Streptococcus pyogenes): ≤ 0.015 µg/mL | MIC90 (Streptococcus pyogenes): ≤ 0.015 µg/mL | MIC50 (Citrobacter freundii [28]): 0.5 µg/mL (≈ 1.67 µM) | MIC90 (Citrobacter freundii [28]): 1 µg/mL (≈ 3.34 µM) | Activity (Enterobacter cloacae [29]): 97.1% | Activity (Escherichia coli [30]): 3.2% | Activity (Streptococcus pneumoniae [31]): 10.8% | MIC50 (Providencia sp.): 1 µg/mL (≈ 3.34 µM) | MIC90 (Providencia sp.): 2 µg/mL (≈ 6.68 µM) | Activity (Acinetobacter [32]): 68.8% | MIC50 (Morganella morganii): 2 µg/mL (≈ 6.68 µM) | MIC90 (Morganella morganii): 2 µg/mL (≈ 6.68 µM) | Activity (Proteus mirabilis [33]): 0%

CC(C)(O/N=C(\C(=O)N[C@@H]1C(=O)N2C(C(=O)[O-])=C(C[n+]3ccccc3)CS[C@H]12)c1csc(N)n1)C(=O)O [CEFTAZIDIME]
MIC50 (Haemophilus influenzae [1]): 0.06 µg/mL (≈ 0.11 µM) | MIC90 (Haemophilus influenzae [1]): 0.12 µg/mL (≈ 0.22 µM) | Activity (Enterobacter cloacae [2]): 100% | MIC50 (Streptococcus viridans): 8 µg/mL (≈ 14.6 µM) | MIC90 (Streptococcus viridans): > 32 µg/mL | MIC50 (Proteus mirabilis [3]): 0.06 µg/mL (≈ 0.11 µM) | MIC90 (Proteus mirabilis [3]): 0.12 µg/mL (≈ 0.22 µM) | MIC50 (Citrobacter freundii [4]): > 32 µg/mL | MIC90 (Citrobacter freundii [4]): > 32 µg/mL | Activity (Klebsiella pneumoniae [5]): 100% | MIC50 (Klebsiella pneumoniae [6]): > 32 µg/mL | MIC90 (Klebsiella pneumoniae [6]): > 32 µg/mL | MIC50 (Enterococcus faecalis): > 32 µg/mL | MIC90 (Enterococcus faecalis): > 32 µg/mL | MIC50 (Enterobacteriaceae [7]): 0.12 µg/mL (≈ 0.22 µM) | MIC90 (Enterobacteriaceae [7]): 0.5 µg/mL (≈ 0.915 µM) | Activity (Haemophilus influenzae [8]): 98% | MIC50 (Acinetobacter [9]): 4 µg/mL (≈ 7.32 µM) | MIC90 (Acinetobacter [9]): > 32 µg/mL | Activity (Escherichia coli [10]): 0% | Activity (Enterobacteriaceae [11]): 0% | Activity (Staphylococcus aureus [12]): 66.2% | MIC50 (Staphylococcus aureus [13]): 32 µg/mL (≈ 58.5 µM) | MIC90 (Staphylococcus aureus [13]): > 32 µg/mL | Activity (Enterobacteriaceae [14]): 100% | MIC50 (Streptococcus pneumoniae [15]): 16 µg/mL (≈ 29.3 µM) | MIC90 (Streptococcus pneumoniae [15]): 32 µg/mL (≈ 58.5 µM) | Activity (Citrobacter freundii [16]): 97% | Activity (Klebsiella pneumoniae [17]): 0% | Activity (Staphylococcus aureus [18]): 92% | Activity (Enterobacteriaceae [19]): 0% | Activity (Citrobacter freundii [20]): 0% | Activity (Enterobacteriaceae [21]): 90% | MIC50 (Enterobacteriaceae [23]): > 32 µg/mL | MIC90 (Enterobacteriaceae [23]): > 32 µg/mL | MIC50 (Haemophilus influenzae [24]): 0.06 µg/mL (≈ 0.11 µM) | MIC90 (Haemophilus influenzae [24]): 0.12 µg/mL (≈ 0.22 µM) | MIC50 (Staphylococcus aureus [25]): 4 µg/mL (≈ 7.32 µM) | MIC90 (Staphylococcus aureus [25]): 8 µg/mL (≈ 14.6 µM) | Activity (Acinetobacter [26]): 93.8% | Activity (Enterobacter cloacae [27]): 0% | MIC (Streptococcus pyogenes): ≤ 1 µg/mL | MIC50 (Streptococcus pyogenes): ≤ 1 µg/mL | MIC90 (Streptococcus pyogenes): ≤ 1 µg/mL | MIC50 (Citrobacter freundii [28]): 0.25 µg/mL (≈ 0.457 µM) | MIC90 (Citrobacter freundii [28]): 1 µg/mL (≈ 1.83 µM) | Activity (Enterobacter cloacae [29]): 0% | Activity (Escherichia coli [30]): 87.3% | MIC50 (Providencia sp.): 0.25 µg/mL (≈ 0.457 µM) | MIC90 (Providencia sp.): 4 µg/mL (≈ 7.32 µM) | Activity (Acinetobacter [32]): 0% | MIC50 (Morganella morganii): 0.06 µg/mL (≈ 0.11 µM) | MIC90 (Morganella morganii): 4 µg/mL (≈ 7.32 µM) | Activity (Proteus mirabilis [33]): 0%
